Experiments:
[1] = system: LPS-induced inflammation (neutrophil infiltration, myeloperoxidase bioluminescence); test: Murine subcutaneous LPS-induced inflammation, neutrophil activity by luminol bioluminescence; type: in vivo, mouse; conditions: given by gavage 30 min prior to LPS (oil fraction 100 microliter; indomethacin 10 mg/kg), vs vehicle
Text: To evaluate the anti-inflammatory activity of distinct fatty acid-ethyl ester oil fractions obtained during supercritical fluid chromatography (SFC) for the industrial-scale manufacturing of EPA-ethyl ester and DHA-ethyl ester concentrates, a murine model of subcutaneous sterile inflammation was established which permitted measuring the effects of orally administered oil fractions on the pro-inflammatory phase of the inflammatory response. […] In order to initiate inflammation, Escherichia coli lipopolysaccharide (LPS; serotype 127:B8, purified by trichloroacetic acid extraction, Sigma-Aldrich) was injected sub-cutaneously as a single dose (5 milligram per kilogram in a 200 microliter volume of sterile […] dorsal hind flank of a mouse (CD1 mice of 9 weeks age and weighing approximately 30 grams, purchased from the Charles River company). Neutrophil infiltration into the site of inflammation was measured non-invasively by bioluminescence emitted by conversion of luminol by the neutrophil enzyme myeloperoxidase (Gross, 2009), permitting assessment of inflammatory changes over a 6 hour time period. […]

[2] = system: zymosan A-induced peritoneal inflammation (inflammatory exudate cells); test: Murine peritoneal inflammation induced by zymosan A, exudate cells by FACS; type: in vivo, mouse; conditions: 4 hours after 0.1 mg zymosan A i.p., vs vehicle
Description: With respect to 17-HDHA, it is possible that the anti-inflammatory activity of oil fraction 1 (shown in FIG. 1A) can therefore be explained, at least in part, due to the selective enrichment of this anti-inflammatory SPM precursor into this oil fraction. In order to determine the anti-inflammatory action and contribution of 17-HDHA, the anti-inflammatory effect of fraction 1 was determined in a well-known model of sterile inflammation. […] Vehicle (100 microliter sterile salive), 100 microliter oil fraction 1, or 1 microgram synthetic 17S-HDHA (Cayman Chemicals) in sterile salive was administered by gavage 30 minutes prior to intraperitoneal injection of 0.1 mg zymosan A. Oil fraction 1 analyzed here is the same as fraction number 1 shown in FIGS. 1, 2, and 3. After 4 hours, the inflammatory exudate was recovered and the changes in the number and types of inflammatory cells determined by fluorescent-activated cell sorting employing specific fluorescently-labeled antibodies. Values are mean±standard error of the mean of […] individual mice. Statistically significant differences (Student's t-test) are indicated by * (P<0,05) or # (P<0,10) for comparisons of inflammatory exudate cell numbers obtained after treatment with oil fraction 1 or compared to the vehicle-treated mice. […] This anti-inflammatory effect was reproduced by the oral administration (gavage) of 17S-HDHA.

[3] = gavage 30 min prior (100 microliter oil fraction or 1 microgram 17S-HDHA)

| Compound | reduction of LPS-induced inflammation ([1]; 3 hours after LPS s.c.) | reduction of LPS-induced inflammation ([1]; 6 hours after LPS s.c.) | number of polymorphonuclear leukocytes (PMN) in exudate [2, 3] | total number of exudate cells [2, 3] | monocytes, macrophages or lymphocytes in exudate ([2]; gavage 30 min prior) |
| --- | --- | --- | --- | --- | --- |
| COc1ccc2c(c1)c(CC(=O)O)c(C)n2C(=O)c1ccc(Cl)cc1 [indomethacin] | 26% | 44% | – | – | – |
| CC/C=C\C[C@H](O)/C=C/C=C\C/C=C\C/C=C\C/C=C\CCC(=O)O [17S-HDHA, 17S-hydroxy-docosa-4Z,7Z,10Z,13Z,15E,19Z-hexaenoic acid] | – | – | reproduced | reproduced | No statistically significant changes |

Reference: US11865096B2, “Oils with anti-inflammatory activity containing natural specialized proresolving mediators and their precursors” (Solutex NA LLC, priority 2012, dated 2024)
